Data from ChEMBL document CHEMBL1240388, “Single nucleotide polymorphism analysis of the major tripartite multidrug efflux pump of Escherichia coli: functional conservation in disparate animal reservoirs despite exposure to antimicrobial chemotherapy” (2010).
In brackets after ≈: the same amount, converted by molar mass.

How the values were obtained:
Escherichia coli [1] = assay: Antibacterial activity against Escherichia coli AG102MB; format: functional
Escherichia coli [2] = assay: Antibacterial activity against Escherichia coli AG102MB harboring naive acrB gene; format: functional
Escherichia coli [3] = assay: Antibacterial activity against Escherichia coli AG102MB harboring pP10-based acrB gene; format: functional
Escherichia coli [4] = assay: Antibacterial activity against Escherichia coli AG102MB harboring pS1328-based acrB gene; format: functional
Escherichia coli [5] = assay: Antibacterial activity against Escherichia coli AG102MB harboring pSportI cloning vector

Structure (SMILES) | MIC (Escherichia coli [1]) | MIC (Escherichia coli [2]) | MIC (Escherichia coli [3]) | MIC (Escherichia coli [4]) | MIC (Escherichia coli [5])
CC1(C)S[C@@H]2[C@H](NC(=O)[C@H](N)c3ccccc3)C(=O)N2[C@H]1C(=O)O [AMPICILLIN] | 16 mg/L (≈ 45.8 µM) | > 1020 mg/L | > 1020 mg/L | > 1020 mg/L | > 1020 mg/L
O=C(N[C@H](CO)[C@H](O)c1ccc([N+](=O)[O-])cc1)C(Cl)Cl [CHLORAMPHENICOL] | 2 mg/L (≈ 6.19 µM) |  | 32 mg/L (≈ 99 µM) |  | 4 mg/L (≈ 12.4 µM)
C[C@H](CCC(=O)O)[C@H]1CC[C@H]2[C@@H]3[C@H](O)C[C@@H]4C[C@H](O)CC[C@]4(C)[C@H]3C[C@H](O)[C@]12C [CHOLIC ACID] | 4 mg/L (≈ 9.79 µM) | 8 mg/L (≈ 19.6 µM) | 8 mg/L (≈ 19.6 µM) | 16 mg/L (≈ 39.2 µM) | 4 mg/L (≈ 9.79 µM)
O=C(O)c1cn(C2CC2)c2cc(N3CCNCC3)c(F)cc2c1=O [CIPROFLOXACIN] | 0.063 mg/L (≈ 0.19 µM) |  |  |  | 
CC[C@H]1OC(=O)[C@H](C)[C@@H](O[C@H]2C[C@@](C)(OC)[C@@H](O)[C@H](C)O2)[C@H](C)[C@@H](O[C@@H]2O[C@H](C)C[C@H](N(C)C)[C@H]2O)[C@](C)(O)C[C@@H](C)C(=O)[C@H](C)[C@@H](O)[C@]1(C)O [ERYTHROMYCIN] | 4 mg/L (≈ 5.45 µM) | 128 mg/L (≈ 174 µM) | 128 mg/L (≈ 174 µM) | 512 mg/L (≈ 698 µM) | 8 mg/L (≈ 10.9 µM)
CC(=O)O[C@H]1C[C@@]2(C)[C@@H](C[C@@H](O)[C@H]3[C@@]4(C)CC[C@@H](O)[C@@H](C)[C@@H]4CC[C@@]32C)/C1=C(\CCC=C(C)C)C(=O)O [FUSIDIC ACID] | 16 mg/L (≈ 31 µM) | > 512 mg/L | > 512 mg/L | > 512 mg/L | 8 mg/L (≈ 15.5 µM)
CN(C)c1ccc(C(=C2C=CC(=[N+](C)C)C=C2)c2ccc(N(C)C)cc2)cc1.[Cl-] [GENTIAN VIOLET] | 0.5 mg/L | 4 mg/L | 4 mg/L | 4 mg/L | 0.5 mg/L
CC[n+]1c(-c2ccccc2)c2cc(N)ccc2c2ccc(N)cc21.[Br-] [HOMIDIUM BROMIDE] | 4 mg/L | 128 mg/L | 64 mg/L | 64 mg/L | 2 mg/L
NC[C@H]1O[C@H](O[C@H]2[C@H](O)[C@@H](O[C@H]3O[C@H](CO)[C@@H](O)[C@H](N)[C@H]3O)[C@H](N)C[C@@H]2N)[C@H](O)[C@@H](O)[C@@H]1O [KANAMYCIN] | > 1020 mg/L |  |  |  | 
CO[C@@H]1[C@@H](OC(N)=O)[C@@H](O)[C@H](Oc2ccc3c(O)c(NC(=O)c4ccc(O)c(CC=C(C)C)c4)c(=O)oc3c2C)OC1(C)C [NOVOBIOCIN] | 4 mg/L (≈ 6.53 µM) | 512 mg/L (≈ 836 µM) | 512 mg/L (≈ 836 µM) | 512 mg/L (≈ 836 µM) | 8 mg/L (≈ 13.1 µM)
CO[C@H]1C[C@H](O[C@H]2[C@H](C)[C@@H](O[C@@H]3O[C@H](C)C[C@H](N(C)C)[C@H]3O)[C@@H](C)C[C@@]3(CO3)C(=O)[C@H](C)[C@@H](O)[C@@H](C)[C@@H](C)OC(=O)[C@@H]2C)O[C@@H](C)[C@@H]1O [OLEANDOMYCIN] | 256 mg/L (≈ 372 µM) | > 1020 mg/L | > 1020 mg/L | > 1020 mg/L | 64 mg/L (≈ 93 µM)
CN(C)[C@@H]1C(O)=C(C(N)=O)C(=O)[C@@]2(O)C(O)=C3C(=O)c4c(O)cccc4[C@@](C)(O)[C@H]3C[C@@H]12 [TETRACYCLINE] | 1 mg/L (≈ 2.25 µM) | 8 mg/L (≈ 18 µM) | 8 mg/L (≈ 18 µM) | 16 mg/L (≈ 36 µM) | 1 mg/L (≈ 2.25 µM)
CC[C@H]1OC(=O)C[C@@H](O)[C@H](C)[C@@H](O[C@@H]2O[C@H](C)[C@@H](O[C@H]3C[C@@](C)(O)[C@@H](O)[C@H](C)O3)[C@H](N(C)C)[C@H]2O)[C@@H](CC=O)C[C@@H](C)C(=O)/C=C/C(C)=C/[C@@H]1CO[C@@H]1O[C@H](C)[C@@H](O)[C@@H](OC)[C@H]1OC [TYLOSIN] | 128 mg/L (≈ 140 µM) | 1020 mg/L (≈ 1120 µM) | 1020 mg/L (≈ 1120 µM) | > 1020 mg/L | 16 mg/L (≈ 17.5 µM)
